From the NIST ThermoML archive (doi:10.1021/je060411g)
± gives the expanded uncertainty stated by the source.

Test: molar heat capacity at constant pressure
Conditions: 101.33 kPa, Crystal 2

CC(C)(C)CO [2,2-dimethyl-1-propanol]
Vacuum adiabatic calorimetry
Conditions | molar heat capacity at constant pressure [J/K/mol]
6.04 K | 1.42 ± 0.03
6.22 K | 1.34 ± 0.04
6.72 K | 1.62 ± 0.04
6.93 K | 1.79 ± 0.04
7.63 K | 2.48 ± 0.06
7.66 K | 2.49 ± 0.06
8.46 K | 3.25 ± 0.07
8.71 K | 3.26 ± 0.07
9.38 K | 3.5 ± 0.08
9.84 K | 3.94 ± 0.08
10.52 K | 4.52 ± 0.1
11.19 K | 4.61 ± 0.1
11.74 K | 4.61 ± 0.1
12.6 K | 5.48 ± 0.12
12.96 K | 6.1 ± 0.13
13.95 K | 7.71 ± 0.16
14.12 K | 7.8 ± 0.16
15.22 K | 9.22 ± 0.19
15.26 K | 9.22 ± 0.19
16.54 K | 10.78 ± 0.22
16.63 K | 10.92 ± 0.23
17.89 K | 12.37 ± 0.26
18.17 K | 12.68 ± 0.26
19.28 K | 14.02 ± 0.29
19.75 K | 14.6 ± 0.3
20.7 K | 15.68 ± 0.32
21.36 K | 16.44 ± 0.34
22.16 K | 17.26 ± 0.35
23.02 K | 18.27 ± 0.37
23.65 K | 18.89 ± 0.39
24.72 K | 20.07 ± 0.41
25.17 K | 20.52 ± 0.42
26.45 K | 21.86 ± 0.44
26.71 K | 22.12 ± 0.45
27.26 K | 22.45 ± 0.45
27.45 K | 22.66 ± 0.46
28.26 K | 23.73 ± 0.48
28.44 K | 23.84 ± 0.48
29.84 K | 25.29 ± 0.51
30.14 K | 25.52 ± 0.51
31.75 K | 26.93 ± 0.54
33.36 K | 28.48 ± 0.57
35.01 K | 29.81 ± 0.6
36.67 K | 31.13 ± 0.63
38.35 K | 32.76 ± 0.66
40.05 K | 33.71 ± 0.68
41.77 K | 34.97 ± 0.7
43.5 K | 36.21 ± 0.73
45.25 K | 37.39 ± 0.75
47.01 K | 38.58 ± 0.78
48.78 K | 39.8 ± 0.8
50.56 K | 40.96 ± 0.82
52.36 K | 42.15 ± 0.85
54.16 K | 43.42 ± 0.87
55.98 K | 44.6 ± 0.9
57.81 K | 45.76 ± 0.92
59.64 K | 46.96 ± 0.94
61.49 K | 48 ± 0.96
63.34 K | 48.9 ± 0.98
65.21 K | 49.05 ± 0.99
67.11 K | 48.13 ± 0.97
69.02 K | 47.57 ± 0.96
70.93 K | 51.84 ± 1
72.82 K | 53.62 ± 1.1
74.71 K | 54.48 ± 1.1
76.62 K | 55.54 ± 1.1
78.53 K | 57.23 ± 1.1
80.43 K | 58.98 ± 1.2
82.34 K | 59.82 ± 1.2
84.25 K | 60.91 ± 1.2
86.17 K | 61.94 ± 1.2
88.09 K | 63.01 ± 1.3
90.01 K | 64.26 ± 1.3
91.94 K | 65.3 ± 1.3
93.72 K | 66.04 ± 1.3
93.87 K | 66.34 ± 1.3
93.99 K | 65.67 ± 1.3
95.11 K | 67.03 ± 1.4
95.8 K | 67.7 ± 1.4
97.08 K | 68.3 ± 1.4
97.74 K | 68.54 ± 1.4
99.03 K | 69.37 ± 1.4
99.68 K | 69.74 ± 1.4
100.97 K | 70.67 ± 1.4
102.92 K | 71.57 ± 1.4
104.87 K | 72.73 ± 1.5
106.82 K | 73.77 ± 1.5
108.77 K | 74.92 ± 1.5
110.72 K | 75.98 ± 1.5
112.68 K | 77.06 ± 1.6
114.63 K | 78.14 ± 1.6
116.59 K | 79.23 ± 1.6
118.55 K | 80.35 ± 1.6
120.51 K | 81.5 ± 1.6
122.47 K | 82.44 ± 1.7
124.43 K | 83.56 ± 1.7
126.39 K | 84.65 ± 1.7
128.36 K | 85.69 ± 1.7
130.32 K | 86.79 ± 1.8
131.73 K | 87.42 ± 1.8
132.15 K | 87.41 ± 1.8
132.29 K | 87.89 ± 1.8
133.36 K | 88.24 ± 1.8
134.27 K | 88.87 ± 1.8
135.34 K | 89.35 ± 1.8
136.24 K | 89.94 ± 1.8
137.31 K | 90.43 ± 1.8
139.28 K | 91.45 ± 1.8
141.25 K | 92.54 ± 1.9
143.22 K | 93.56 ± 1.9
145.19 K | 94.64 ± 1.9
147.17 K | 95.67 ± 1.9
149.14 K | 96.7 ± 1.9
151.11 K | 97.64 ± 2
153.09 K | 98.81 ± 2

Conditions | molar heat capacity at constant pressure [J/K/mol]
10 K | 4.09 ± 0.26
15 K | 9 ± 0.44
20 K | 14.89 ± 0.61
25 K | 20.35 ± 0.7
30 K | 25.41 ± 0.72
35 K | 29.8 ± 0.82
40 K | 33.67 ± 0.91
45 K | 37.23 ± 0.99
50 K | 40.59 ± 1.1
55 K | 43.96 ± 1.1
60 K | 47.18 ± 1.2
65 K | 49.1 ± 1.3
70 K | 49.5 ± 1.3
75 K | 54.63 ± 1.4
80 K | 58.6 ± 1.5
85 K | 61.31 ± 1.5
90 K | 64.25 ± 2
95 K | 66.91 ± 2
100 K | 69.96 ± 2.1
105 K | 72.8 ± 2.1
110 K | 75.58 ± 2.2
120 K | 81.21 ± 2.3
130 K | 86.6 ± 2.4
140 K | 91.85 ± 2.5
150 K | 97.11 ± 2.6
